The values that follow come from patent US20250297225A1, “MULTIPLE HEART TISSUE CULTURE FUSION” (IMBA - INSTITUT FÜR MOLEKULARE BIOTECHNOLOGIE GMBH, priority 2022, published 2025).

Series [1] concerns cardioids (LV, RV, OFT, Atria, AVC). As to conditions: for dosage at which severe compartment-specific and stage-specific effects were observed: human.
Series [2] has the same test system. Description: Real-time qPCR of cardioids treated with teratogens. In kind it is cell-based, human. The method, then: The isolated RNA was reverse transcribed to cDNA using the Reverse Transcription Kit (Invitrogen, #18080044) with a C100 Touch Bio-Rad Thermal Cycler. Quantitative PCR was performed using the GoTaq qPCR master mix 2× (Promega, #A6001) with a Bio-Rad CFX384 Real-Time thermal cycler. Values of gene expression of each sample were obtained in triplicates. The Log-fold change of the sample from PBGD as a housekeeping gene and a pluripotent stem cell sample for normalization were used.

The test system of series [3] is FHF and aSHF progenitors / cardioids. Description: Lineage specification of cardiac progenitors/cardioids by retinoic acid dosage. As to conditions: LV (FHF progenitor), Cardiac Mesoderm Patterning Media One. In kind it is cell-based, human. How it is done:
These were termed 3D protocols.
The retinoic acid concentration should be low as a higher concentration (>100 nM) leads to FHF-derived atria, not ventricular fate.
The retinoic acid addition here helps drive the RV identity.

For series [4] the following is noted: cited from earlier work.

Entries after “also recorded” stand apart in the source; their conditions may differ. Some results are limits rather than exact numbers.

On to `COc1cc(C)c(/C=C/C(C)=C/C=C/C(C)=C/C(=O)O)c(C)c1C` [Acitretin], for which, in series [1], the “CM differentiation and morphology of treated cardioids” value is “Inefficient CM differentiation and morphological changes”; the “defects in OFT, atrial, and AVC cardioids” value was “specification, patterning and morphogenesis defects”; the “dosage at which severe compartment-specific and stage-specific effects were observed” value stood at 5 nM.

As to `CC1=C(/C=C/C(C)=C/C=C/C(C)=C/CO)C(C)(C)CCC1` [All trans Retinol], in series [2] (OFT cardioids), the “gene expression in OFT cardioids (OFT, ventricular, chamber, atrial genes)” value was “downregulation of OFT and upregulation of ventricular genes”. Also, in series [1], the “effect on all the other cardioid subtypes” value is “unaffected”; the “morphological effect on OFT cardioids” value was “severe morphological effect on OFT cardioids”; the “size difference between treated and untreated cardioids” value was “no size difference between treated and untreated cardioids within one protocol the except LV cardioids treated with 50 nM”.

On to `CC(=O)Oc1ccccc1C(=O)O` [Aspirin], for which, in series [2] (high 30 μM dosage), the “gene expression differences vs control cardioids” value was “no obvious gene expression differences; also recorded: neither observed morphological nor significant gene expression differences”. Further, the “size and TNNI-GFP expression compared to untreated cardioids” value in series [1] was “no size and TNNI-GFP expression differences”.

Regarding `CC1=C(/C=C/C(C)=C/C=C/C(C)=C\C(=O)O)C(C)(C)CCC1` [Isotretinoin], in series [1], the “defects in OFT, atrial, and AVC cardioids” value is “specification, patterning and morphogenesis defects”; the “dosage at which severe compartment-specific and stage-specific effects were observed” value was 1 nM.

`CC1=C(/C=C/C(C)=C/C=C/C(C)=C/C(=O)O)C(C)(C)CCC1` [retinoic acid]: in series [3], the “retinoic acid concentration that leads to FHF-derived atria, not ventricular fate” value is listed as more than 100 nM.

Turning to `O=C1CCC(N2C(=O)c3ccccc3C2=O)C(=O)N1` (stereo not shown) [thalidomide], the “human therapeutic plasma concentrations” value in series [4] is approximately 2.4 µM. Further, in series [2] (d9.5 cardioids), the “expression of chamber-specific marker NPPA” value is “downregulation of the chamber-specific marker NPPA for all lineages except for the RV and OFT”; the “expression of compartment identity markers (NR2F2, IRX1/4)” value is recorded as “dosage-specific misregulation of compartment identity markers (NR2F2, IRX1/4)”. Besides, the “expression of lineage specific genes” value in series [2] (d9.5 cardioids, fold change normalized to housekeeping gene and pluripotency) is on record as “mis-regulation of lineage specific genes”.
